pIC50: −log10 of the molar value.

The target of one experiment is Bcl-2 (Homo sapiens, UniProt P10415). Kind of experiment: Homogeneous HTS assay for inhibitors of the Bcl-2 : Bak (72-87) BH3 domain interaction, fluorescence polarisation (2D-FIDA). The experiment is classed as binding.
Chain of Bcl-2 (P10415 whole entry, species assumed, the tested form may be a part): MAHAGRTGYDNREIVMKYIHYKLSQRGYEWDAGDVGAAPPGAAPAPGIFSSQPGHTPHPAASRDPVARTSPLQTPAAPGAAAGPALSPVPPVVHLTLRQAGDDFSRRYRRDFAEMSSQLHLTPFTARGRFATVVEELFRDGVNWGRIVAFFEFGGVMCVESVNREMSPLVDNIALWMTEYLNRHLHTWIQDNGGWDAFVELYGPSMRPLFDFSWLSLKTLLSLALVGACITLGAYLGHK
Conditions: not given
The text has this:
FIG. 1 is a schematic drawing of the Bcl-2: Bak (72-87) interaction assay based on fluorescence polarisation.
The homogeneous HTS assay for inhibitors of the Bcl-2 is shown schematically in FIG. 1. BH3 domain interaction is based on fluorescence polarisation. The inherent rotational diffusion of the Bak BH3 domain derived fluorescent labelled peptide decreases upon binding to Bc1-2. This shift in rotational diffusion is quantitated using the two-dimensional fluorescence intensity distribution analysis (2D-FIDA; Kask et al. 2000, Biophys. J. 78: 1703-1713).
Two different BH3 domain derived peptide ligands were synthesised and subsequently fluorescently labelled: • a 16mer peptide covering amino acids 72-87 of the Bak protein; this peptide had been used by Wang and co-workers and Holinger and coworkers in their Bcl-2 protein binding studies; Wang and co-workers reported an equilibrium binding constant KD of ˜0.2 μM to Bcl-2 protein; • peptide sequence: GQVGRQLAIIGDDINR—N (Wang et al. 2002, Proc. Natl. Acad. Sci. U.S.A. 97: 7124-7129; Holinger et al. 1999, J. Biol. Chem. 274: 13298-13304).
A general note: Fluorescence polarisation rises when a labelled molecule tumbles more slowly, as on binding a larger partner.
Compound `N=c1n(CCCOc2ccc(F)cc2)c2ccccc2n1Cc1ccc(Cl)nc1` [Compound 52, 1-(6-Chloro-pyridin-3-ylmethyl)-3-[3-(4-fluoro-phenoxy)-propyl]-1,3-dihydro-benzoimidazol-2-ylideneamine] gave a pIC50 of 4.00 to 4.96.

The experiment is the same for the next values; noted with them: fluorescence polarisation, fluorescent labelled Bak BH3 domain derived peptide; read-out: IC50 [μM] Bcl-2.
In the case of `CC1(C)CCC(c2ccc(Cl)cc2)=C(CN2CCN(c3ccc(Cn4c(=N)n(CCCOc5ccccc5)c5ccccc54)cc3)CC2)C1` [Compound 32, 1-(4-{4-[2-(4-Chloro-phenyl)-5,5-dimethyl-cyclohex-1-enylmethyl]-piperazin-1-yl}-benzyl)-3-(3-phenoxy-propyl)-1,3-dihydro-benzoimidazol-2-ylideneamine], the IC50 was under 10 µM. As to `N=c1n(CCSc2ccccc2)c2ccccc2n1Cc1ccc(N2CCN(Cc3ccccc3-c3ccc(Cl)cc3)CC2)cc1` [Compound 33, 1-{4-[4-(4′-Chloro-biphenyl-2-ylmethyl)-piperazin-1-yl]-benzyl}-3-(2-phenylsulfanyl-ethyl)-1,3-dihydro-benzoimidazol-2-ylideneamine], the IC50 was under 10 µM. Same read-out and setting: in the case of `N=c1n(CCCOc2ccc(F)cc2)c2ccccc2n1Cc1csc(Cl)n1` [Compound 34, 1-(2-Chloro-thiazol-4-ylmethyl)-3-[3-(4-fluoro-phenoxy)-propyl]-1,3-dihydro-benzoimidazol-2-ylideneamine] it was 11 to 100 µM. For `N=c1n(CCCOc2ccc(F)cc2)c2ccccc2n1Cc1csc(N2CCN(Cc3ccccc3-c3ccccc3)CC2)n1` [Compound 35, 1-[2-(4-Biphenyl-2-ylmethyl-piperazin-1-yl)-thiazol-4-ylmethyl]-3-[3-(4-fluoro-phenoxy)-propyl]-1,3-dihydro-benzoimidazol-2-ylideneamine], the IC50 was under 10 µM.

For the compound `N=c1n(CCCOc2ccc(F)cc2)c2ccccc2n1Cc1csc(N2CCN(Cc3ccccc3-c3ccc(Cl)cc3)CC2)n1` [Compound 36, 1-{2-[4-(4′-Chloro-biphenyl-2-ylmethyl)-piperazin-1-yl]-thiazol-4-ylmethyl}-3-[3-(4-fluoro-phenoxy)-propyl]-1,3-dihydro-benzoimidazol-2-ylideneamine], the IC50 was under 10 µM.

As for `CC1(C)CCC(c2ccc(Cl)cc2)=C(CN2CCN(c3nc(Cn4c(=N)n(CCCOc5ccc(F)cc5)c5ccccc54)cs3)CC2)C1` [Compound 37, 1-(2-{4-[2-(4-Chloro-phenyl)-5,5-dimethyl-cyclohex-1-enylmethyl]-piperazin-1-yl}-thiazol-4-ylmethyl)-3-[3-(4-fluoro-phenoxy)-propyl]-1,3-dihydro-benzoimidazol-2-ylideneamine], the IC50 was under 10 µM. `N=c1n(CCCOc2ccc(F)cc2)c2ccccc2n1Cc1ccccc1N1CCN(Cc2ccccc2-c2ccccc2)CC1` [Compound 38, 1-[2-(4-Biphenyl-2-ylmethyl-piperazin-1-yl)-benzyl]-3-[3-(4-fluoro-phenoxy)-propyl]-1,3-dihydro-benzoimidazol-2-ylideneamine]: the IC50 was under 10 µM.

With `N=c1n(CCCOc2ccc(F)cc2)c2ccccc2n1Cc1ccc(CN2CCN(Cc3ccc(Cl)cc3)CC2)cc1` [Compound 39, 1-{4-[4-(4-Chloro-benzyl)-piperazin-1-ylmethyl]-benzyl}-3-[3-(4-fluoro-phenoxy)-propyl]-1,3-dihydro-benzoimidazol-2-ylideneamine], the IC50 fell in the range of 11 to 100 µM. As for `N=c1n(CCCOc2ccc(F)cc2)c2ccccc2n1Cc1ccc(CN2CCN(c3ccccc3)CC2)cc1` [Compound 40, 1-[3-(4-Fluoro-phenoxy)-propyl]-3-[4-(4-phenyl-piperazin-1-ylmethyl)-benzyl]-1,3-dihydro-benzoimidazol-2-ylideneamine], the IC50 was 11 to 100 µM.

On to `N=c1n(CCCOc2ccc(F)cc2)c2ccccc2n1Cc1ccc(CN2CCN(c3cccc(Cl)c3)CC2)cc1` [Compound 41, 1-{4-[4-(3-Chloro-phenyl)-piperazin-1-ylmethyl]-benzyl}-3-[3-(4-fluoro-phenoxy)-propyl]-1,3-dihydro-benzoimidazol-2-ylideneamine], for which the IC50 was 11 to 100 µM. Regarding `N=c1n(CCCOc2ccc(F)cc2)c2ccccc2n1Cc1ccc(CN2CCN(c3ccc(Cl)cc3)CC2)cc1` [Compound 42, 1-{4-[4-(4-Chloro-phenyl)-piperazin-1-ylmethyl]-benzyl}-3-[3-(4-fluoro-phenoxy)-propyl]-1,3-dihydro-benzoimidazol-2-ylideneamine], the IC50 was 11 to 100 µM. Same read-out and setting: the same measure for `N=c1n(CCCOc2ccc(F)cc2)c2ccccc2n1Cc1ccc(CNCC(=O)Nc2ccccc2Cl)cc1` [Compound 43, N-(2-Chloro-phenyl)-2-(4-{3-[3-(4-fluoro-phenoxy)-propyl]-2-imino-2,3-dihydro-benzoimidazol-1-ylmethyl}-benzylamino)-acetamide]: 11 to 100 µM; for `N=c1n(CCCOc2ccc(F)cc2)c2ccccc2n1Cc1ccc(CN2CCN(c3ccccc3Cl)CC2)cc1` [Compound 44, 1-{4-[4-(2-Chloro-phenyl)-piperazin-1-ylmethyl]-benzyl}-3-[3-(4-fluoro-phenoxy)-propyl]-1,3-dihydro-benzoimidazol-2-ylideneamine]: 11 to 100 µM. On to `N=c1n(CCCOc2ccc(F)cc2)c2ccccc2n1Cc1ccc(CNCC(=O)Nc2ccc(Cl)cc2)cc1` [Compound 45, N-(4-Chloro-phenyl)-2-(4-{3-[3-(4-fluoro-phenoxy)-propyl]-2-imino-2,3-dihydro-benzoimidazol-1-ylmethyl}-benzylamino)-acetamide], for which the IC50 is 11 to 100 µM.

With `N=c1n(CCCOc2ccc(F)cc2)c2ccccc2n1Cc1ccc(CN2CCN(Cc3ccccc3)CC2)cc1` [Compound 46, 1-[4-(4-Benzyl-piperazin-1-ylmethyl)-benzyl]-3-[3-(4-fluoro-phenoxy)-propyl]-1,3-dihydro-benzoimidazol-2-ylideneamine], the IC50 was under 10 µM.

For the compound `N=c1n(CCCOc2ccc(F)cc2)c2ccccc2n1Cc1ccc(CN2CCN(Cc3cccc(Cl)c3)CC2)cc1` [Compound 47, 1-{4-[4-(3-Chloro-benzyl)-piperazin-1-ylmethyl]-benzyl}-3-[3-(4-fluoro-phenoxy)-propyl]-1,3-dihydro-benzoimidazol-2-ylideneamine], the IC50 is under 10 µM. Still for that read-out and setting: the same measure for `N=c1n(CCCOc2ccc(F)cc2)c2ccccc2n1Cc1ccc(CN2CCN(Cc3ccccc3Cl)CC2)cc1` [Compound 48, 1-{4-[4-(2-Chloro-benzyl)-piperazin-1-ylmethyl]-benzyl}-3-[3-(4-fluoro-phenoxy)-propyl]-1,3-dihydro-benzoimidazol-2-ylideneamine]: 11 to 100 µM; for `N=c1n(CCCOc2ccc(F)cc2)c2ccccc2n1Cc1ccc(CN2CCN(Cc3ccccc3-c3ccccc3)CC2)cc1` [Compound 49, 1-[4-(4-Biphenyl-2-ylmethyl-piperazin-1-ylmethyl)-benzyl]-3-[3-(4-fluoro-phenoxy)-propyl]-1,3-dihydro-benzoimidazol-2-ylideneamine]: 11 to 100 µM; for `N=c1n(CCCOc2ccc(F)cc2)c2ccccc2n1Cc1ccc(CNCC(=O)Nc2cccc(Cl)c2)cc1` [Compound 50, N-(3-Chloro-phenyl)-2-(4-{3-[3-(4-fluoro-phenoxy)-propyl]-2-imino-2,3-dihydro-benzoimidazol-1-ylmethyl}-benzylamino)-acetamide]: 11 to 100 µM.

For `N=c1n(CCCOc2ccc(F)cc2)c2ccccc2n1Cc1ccc(CNCC(=O)Nc2ccccc2)cc1` [Compound 51, 2-(4-{3-[3-(4-Fluoro-phenoxy)-propyl]-2-imino-2,3-dihydro-benzoimidazol-1-ylmethyl}-benzylamino)-N-phenyl-acetamide], the IC50 lay within 11 to 100 µM. For the compound `N=c1n(CCCOc2ccc(F)cc2)c2ccccc2n1Cc1ccc(N2CCN(Cc3ccccc3)CC2)nc1` [Compound 53, 1-[6-(4-Benzyl-piperazin-1-yl)-pyridin-3-ylmethyl]-3-[3-(4-fluoro-phenoxy)-propyl]-1,3-dihydro-benzoimidazol-2-ylideneamine], the IC50 fell in the range of 11 to 100 µM.

For `N=c1n(CCCOc2ccc(F)cc2)c2ccccc2n1Cc1ccc(N2CCN(Cc3cccc(Cl)c3)CC2)nc1` [Compound 54, 1-{6-[4-(3-Chloro-benzyl)-piperazin-1-yl]-pyridin-3-ylmethyl}-3-[3-(4-fluoro-phenoxy)-propyl]-1,3-dihydro-benzoimidazol-2-ylideneamine], the IC50 was in the range of 11 to 100 µM. Still for that read-out and setting: in the case of `N=c1n(CCCOc2ccc(F)cc2)c2ccccc2n1Cc1ccc(N2CCN(Cc3ccc(Cl)cc3)CC2)nc1` [Compound 55, 1-{6-[4-(4-Chloro-benzyl)-piperazin-1-yl]-pyridin-3-ylmethyl}-3-[3-(4-fluoro-phenoxy)-propyl]-1,3-dihydro-benzoimidazol-2-ylideneamine] it was 11 to 100 µM. Still for that read-out and setting: the same measure for `N=c1n(CCCOc2ccc(F)cc2)c2ccccc2n1Cc1ccc(N2CCN(Cc3ccccc3-c3ccccc3)CC2)nc1` [Compound 56, 1-[6-(4-Biphenyl-2-ylmethyl-piperazin-1-yl)-pyridin-3-ylmethyl]-3-[3-(4-fluoro-phenoxy)-propyl]-1,3-dihydro-benzoimidazol-2-ylideneamine]: under 10 µM. Still for that read-out and setting: the same measure for `N=c1n(CCCOc2ccc(F)cc2)c2ccccc2n1Cc1ccc(N2CCN(Cc3ccccc3Cl)CC2)nc1` [Compound 57, 1-{6-[4-(2-Chloro-benzyl)-piperazin-1-yl]-pyridin-3-ylmethyl}-3-[3-(4-fluoro-phenoxy)-propyl]-1,3-dihydro-benzoimidazol-2-ylideneamine]: 11 to 100 µM.

By pIC50 is commonly meant the IC50 on a negative log10 scale, so that one unit is a factor of ten. A higher pIC50 goes with a small IC50. A word on the IC50: it is the concentration that gives 50% inhibition.
